Like-named read-outs stand apart in the source and are kept apart here. Where no end group is shown, it is not given here.
Legend:
[1] = test system: LiaRS response in B. subtilis BSF2470; test: LiaRS disk diffusion reporter assay (β-galactosidase, X-Gal); type: cell-based, Bacillus subtilis; conditions: 37°C overnight
Procedure: The LiaRS response was determined via disk diffusion as described previously ([Mascher et al., 2004]). Briefly, B. subtilis strain BSF2470 was grown in LB supplemented with erythromycin (1 μg/mL) overnight at 37°C with shaking. A total of 20 μL of overnight culture was mixed with 100 μL of 20 mg/mL X-Gal (dissolved in DMF) and 5 mL of 0.7% soft LB agar then poured onto a 1.5% LB agar base. The plates were allowed to cool and dry at room temperature for 20 min. The desired molecule was either spotted on a filter paper disk and placed on top of the agar or directly spotted on the agar. The following molecules were tested: ampicillin, 0.5 μL on filter disk, 1 μL directly spotted, 100 mg/mL; compound 1771/LtaS-IN-1, 4 μL, 20 mM (dissolved in DMSO); epilancin 15X, 4 μL, 5 mM; vancomycin, 1 μL, 100 mg/mL; nisin, 4 μL, 2 mM; bacitracin, 4 μL on filter disk, 5 μL directly spotted, 100 mg/mL; water, 5 μL; magainin 2, 10 μL, 1 mM; melittin, 10 μL, 1 mM. The plate was incubated at 37°C overnight. After overnight incubation, the plate was imaged. Compound 1771 (CS-0114233) was purchased from ChemScene LLC.
To investigate the effect of epilancin 15X on the cell envelope, we employed the two-component LiaRS reporter system in B. subtilis (lipid II cycle interfering antibiotic response regulator and sensor; [Mascher et al., 2004]). Briefly, the LiaRS assay is a disk diffusion assay used to screen for the ability of compounds to induce β-galactosidase expression in engineered B. subtilis BSF2470 ([Mascher et al., 2004]). Molecules that produce a blue ring around the edge of the zone of growth inhibition are believed to interfere with the lipid II cycle ([Hachmann et al., 2009]). […] The compound 1771, also called LtaS-IN-1, inhibits lipoteichoic acid (LTA) synthesis ([Richter et al., 2013]) and to the best of our knowledge has not been tested in the LiaRS assay.

[2] = test system: LiaRS response in B. subtilis BSF2470; conditions: cited from earlier work
Description: To investigate the effect of epilancin 15X on the cell envelope, we employed the two-component LiaRS reporter system in B. subtilis (lipid II cycle interfering antibiotic response regulator and sensor; [Mascher et al., 2004]). Briefly, the LiaRS assay is a disk diffusion assay used to screen for the ability of compounds to induce β-galactosidase expression in engineered B. subtilis BSF2470 ([Mascher et al., 2004]). Molecules that produce a blue ring around the edge of the zone of growth inhibition are believed to interfere with the lipid II cycle ([Hachmann et al., 2009]). Most membrane disrup ...

S. carnosus TM300 [3] = test: MIC determination in 96-well microtiter plate; type: cell-based, Staphylococcus carnosus; conditions: BHI, 37°C, 10^5 CFU/mL, OD600 after 18 h
Procedure: (§1) MIC determination was performed in a 96-well microtiter plate as described previously ([Wu et al., 2019]). Sensitive bacterial culture was grown in the appropriate medium (BHI for S. carnosus; LB for B. subtilis) at 37°C overnight. The culture was diluted to 10^5 CFU/mL in medium in each well. Epilancin 15X or its analog was dissolved in water and serially diluted to obtain final concentrations of 20, 10, 5, 2.5, 1.25, 0.625, 0.3125, 0.156, 0.078, 0.039, 0.019, and 0.009 μM. OD600 readings were obtained after 18 h using a Synergy H4 Hybrid Multi-Mode Microplate Reader (BioTeK). Cell-free untreated medium, and untreated cell culture were used as negative controls. The MIC of nisin against B. subtilis BSF2470 was determined following the same methods.

[4] = test system: B. subtilis BSF2470 (1A980); test: MIC determination in 96-well microtiter plate; type: cell-based, Bacillus subtilis; conditions: LB, 37°C, 10^5 CFU/mL, OD600 after 18 h
Procedure: as §1

S. carnosus TM300 [5] = test: Membrane permeability study with propidium iodide (flow cytometry); type: cell-based, Staphylococcus carnosus; conditions: S. carnosus TM300, 20 min exposure, 0.5x, 1x, 4x MIC, n = 3
Procedure: (§2) Cultures of S. carnosus TM300 and B. subtilis BSF2470 were grown to OD600 1.0 and diluted to OD600 0.1 in fresh BHI or LB medium, respectively. The culture was then combined with a final concentration of 25 μM PI (ThermoFisher P3566), 1 mM HEPES, and 1 mM glucose. […] Another two tubes were prepared without antibiotic treatment as controls. The culture was analyzed with a BD Biosciences LSR II flow cytometer for S. carnosus and a BD Biosciences LSRFortessa for B. subtilis using excitation at 488 nm with an argon laser and measurement of emission through a band-pass filter at 695/40 nm. A minimum of 30,000 events were detected for each sample. The experiment was repeated three times, and the mean PI uptake value was determined. The results were calibrated such that the mean PI uptake from the 4x MIC nisin-treated cell culture was set as 100% PI uptake.

B. subtilis BSF2470 = test: as above; type: cell-based, Bacillus subtilis; conditions: B. subtilis BSF2470, 20 min exposure, 0.5x, 1x, 4x MIC, n = 3
Procedure: as §2

S. carnosus TM300 [6] = test: Bright field (Airyscan) microscopy; type: cell-based, Staphylococcus carnosus; conditions: S. carnosus TM300, 0.5 MIC
S. carnosus TM300 [7] = test: Agar diffusion bioactivity assay with lipids in flanking wells; type: cell-based, Staphylococcus carnosus; conditions: S. carnosus TM300 on BHI agar, overnight
Procedure: For agar diffusion antimicrobial activity assays, the autoclaved 1.5% agar was prepared in the appropriate medium and cooled in a 40°C water bath for 15 min. A total of 50 μL overnight culture of the sensitive strain was added to the agar and kept in the water bath. A total of 25 mL seeded agar was poured into a sterile OmniTray (Nunc) and allowed to solidify at room temperature for 30 min. An additional 35 mL of seeded agar was poured over the lower solidified agar layer. A sterile 96-well PCR plate was placed in the molten agar upper layer, and the agar was allowed to solidify at 25°C for 30 min. After sufficient solidification, the 96-well PCR plate was removed. Then 20 μL volume of each peptide was dispensed into the wells. Plates were left at 25°C for 30 min until the wells were dried, and the plates were incubated at 37°C overnight. The antibacterial activity was determined by the presence or absence of growth inhibition.
Figure S5. (A) Zones of growt h inhibition of epilancin 15X a nd nisin A against S. carnosus TM30 0 grown on BHI agar plates. The indicated amounts of antibiotics were placed in the well shown in the center of the zone of inhibition. […]

[8] = Liposome leakage assay using flow cytometry (HaloTag / AF488 ligand); type: biochemical; conditions: 1 μM peptide, 37°C, 1 h

Compound: O=C(COC(=O)Cc1coc2ccc3ccccc3c12)Nc1nnc(-c2ccccc2)o1 [LtaS-IN-1]
- LiaRS response (blue ring at the edge of the zone of inhibition) [1]: did not induce a blue zone

Compound: CC1(C)S[C@@H]2[C@H](NC(=O)[C@H](N)c3ccccc3)C(=O)N2[C@H]1C(=O)O [ampicillin]
- LiaRS response (blue ring at the edge of the zone of inhibition) [1]: did not induce a LiaRS response

Compound: CC[C@@]1([C@@H]2O[C@@H]([C@H]3O[C@@](O)(CO)[C@H](C)C[C@@H]3C)C[C@@H]2C)CC[C@H]([C@]2(C)CC[C@]3(C[C@H](O)[C@@H](C)[C@@H]([C@@H](C)[C@@H](OC)[C@H](C)C(=O)O)O3)O2)O1 [monensin]
- LiaRS response ([2]; ref Wex et al., 2021): do not induce a LiaRS response

Compound: CN[C@H](CC(C)C)C(=O)N[C@H]1C(=O)N[C@@H](CC(N)=O)C(=O)N[C@H]2C(=O)N[C@H]3C(=O)N[C@H](C(=O)N[C@H](C(=O)O)c4cc(O)cc(O)c4-c4cc3ccc4O)[C@H](O)c3ccc(c(Cl)c3)Oc3cc2cc(c3O[C@@H]2O[C@H](CO)[C@@H](O)[C@H](O)[C@H]2O[C@H]2C[C@](C)(N)[C@H](O)[C@H](C)O2)Oc2ccc(cc2Cl)[C@H]1O [vancomycin]
- LiaRS response (blue ring at the edge of the zone of inhibition) [1]: induce a LiaRS response

Compound: Bacitracin
- LiaRS response (blue ring at the edge of the zone of inhibition) [1]: induce a LiaRS response

Compound: colistin
- LiaRS response ([2]; ref Wex et al., 2021): do not induce a LiaRS response

Compound: magainin 2
- LiaRS response (blue ring at the edge of the zone of inhibition) [1]: did not induce a LiaRS response

Compound: melittin
- LiaRS response (blue ring at the edge of the zone of inhibition) [1]: did not induce a LiaRS response

Compound: nisin: lantibiotic, lipid II binding pore former, positive control (ITSISLCTPGCKTGALMGCNMKTATCHCSIHVSK; not fully specified (some residues, bridges); cysteine pairing not given here; UniProt P13068 24-57, looked up) [reference compound]
- MIC (S. carnosus TM300 [3]): 0.5 µM
- MIC [4]: 0.625 µM
- PI uptake (membrane disruption) (S. carnosus TM300 [5]): more substantial
- PI uptake (membrane disruption) (B. subtilis BSF2470): more substantial
- LiaRS response (blue ring at the edge of the zone of inhibition) [1]: induce a LiaRS response
- aggregation phenotype of cells (brightfield) (S. carnosus TM300 [6]): Aggregation was not observed
- antagonism of bioactivity (zone of growth inhibition) by purified S. aureus LTA (S. carnosus TM300 [7]): not
- fluorescence signal (pore formation) ([8]; POPC-cholesterol liposomes with 0.1% lipid II): substantial increase in fluorescence signal
- fluorescence signal (pore formation) compared to buffer control ([8]; POPC-cholesterol liposomes without lipid II): no increase in fluorescence signal

Compound: polymyxin
- LiaRS response ([2]; ref Wex et al., 2021): do not induce a LiaRS response

Compound: tunicamycin
- LiaRS response ([2]; B. subtilis, ref Mascher et al., 2004): positive LiaRS response

From paper PMC10652874, “Investigation into the mechanism of action of the antimicrobial peptide epilancin 15X” (Frontiers in Microbiology, 2023)
